Common to all, as to experiment: NCI anticancer screen, dose series, 48 h
Test [1] has as its system NCI-H23.
Test [2] relates to MDA-MB-231.
The test system of test [3] is U-251.
The subject of test [4] is SW-620.
Test [5] relates to HOP-92.
Test [6] concerns HCT-116.
Test [7] deals with NCI-H460.
Test [8] has as its system LOX IMVI.
The subject of test [9] is SNB-19.
In test [10] the test system is DU-145.
In test [11] the test system is RPMI-8226.
In test [12] the test system is BT-549.
The subject of test [13] is IGROV-1.
For test [14], the system named is SF-268.
Test [15] relates to UACC-257.
Test [16] concerns PC-3.
Test [17] concerns MDA-MB-435.
The test system of test [18] is 786-0.
In test [19] the test system is NCI-H226.
For test [20], the system named is MOLT-4.

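All cell lines were grown in 96-well plates and treated with compound for 48 hours. Here, GI50 denotes the concentration required for 50% inhibition of growth.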 Activity calls are given as the source filed them. Rule as the data show it: active = GI50 up to about 1.1 µM and inactive = higher.

These results are taken from ChEMBL document CHEMBL1201862, “PubChem BioAssay data set” (2004).

Turning to `O=C(CCc1ccc(O)c(O)c1)NCCc1cc(O)cc(O)c1`, the GI50 in [1], in test [2], in test [3], in test [4], in test [5] and in test [6] was > 100 µM (inactive) throughout. The GI50 in [7] is > 100 µM (inactive); in test [8] it was 46 µM (inactive); in [9], > 100 µM (inactive); in test [10] it was > 100 µM (inactive); in test [11], > 100 µM (inactive); in test [12], > 100 µM (inactive). Also, the GI50 is > 100 µM (inactive) in test [13]; > 100 µM (inactive) in test [14]; > 100 µM (inactive) in [15]; > 100 µM (inactive) in test [16]; 24.8 µM (inactive) in test [17]; > 100 µM (inactive) in [18]. Moreover, the GI50 in [19] and in test [20] was > 100 µM (inactive) throughout.
With `O=C1/C(=C/c2ccccc2)CN(C(=O)/C=C/c2ccccc2)C/C1=C\c1ccccc1`, the GI50 is 12.4 µM (inactive) in [1]; 3.18 µM (inactive) in test [2]; 3.59 µM (inactive) in [3]; 2.39 µM (inactive) in [4]; 25.9 µM (inactive) in [5]; 0.764 µM (active) in test [6]. Besides, the GI50 in [7] was 11.5 µM (inactive); in test [8] it was 2.55 µM (inactive); in test [9], 8.15 µM (inactive); in [10], 18.6 µM (inactive); in test [11], 1.07 µM (active); in test [12] it was 2.26 µM (inactive). Further, the GI50 in test [13] is 6.95 µM (inactive); in test [14], 11.2 µM (inactive); in test [15] it was 12.7 µM (inactive); in test [16], 2.03 µM (inactive); in test [17], 1.93 µM (inactive); in test [18], 4.09 µM (inactive). Further, the GI50 is 18.8 µM (inactive) in test [19] and 3.53 µM (inactive) in test [20].
On to `Cc1nc(-c2ccc(Cl)cc2)cn2c1nc1ccccc12`, for which the GI50 in [1] was > 100 µM (inactive); in [2], > 100 µM (inactive); in test [3] it was > 100 µM (inactive); in [4], > 100 µM (inactive); in test [5] it was > 33.1 µM (inactive); in test [6], > 100 µM (inactive). In addition, the GI50 in test [7] is > 100 µM (inactive); in test [8], > 100 µM (inactive); in test [9], > 100 µM (inactive); in [10], > 100 µM (inactive); in test [11], > 100 µM (inactive); in [12] it was > 93.5 µM (inactive). Also, the GI50 was 11.1 µM (inactive) in [13]; > 100 µM (inactive) in test [14]; > 100 µM (inactive) in [15]; > 100 µM (inactive) in [16]; > 100 µM (inactive) in [17]; > 100 µM (inactive) in [18]. For the same molecule, the GI50 was > 100 µM (inactive) in [19] and 26.3 µM (inactive) in [20].
Consider `COc1ccc2c(c1)C1=NCCN(CCN(C)C)c3ccc([N+](=O)[O-])c(c31)N2`, for which the GI50 was 0.701 µM (active) in test [1]; 0.196 µM (active) in test [2]; 0.649 µM (active) in test [3]; 0.252 µM (active) in test [4]; 0.603 µM (active) in [5]; 0.116 µM (active) in test [6]. The GI50 in test [7] was 0.354 µM (active); in test [8], 0.351 µM (active); in test [9], 0.492 µM (active); in [10], 0.48 µM (active); in test [11], 0.442 µM (active); in test [12], 0.815 µM (active). For the same molecule, the GI50 in test [13] is 0.708 µM (active); in test [14], 0.509 µM (active); in test [15] it was 1.38 µM (inactive); in [16] it was 0.411 µM (active); in [17] it was 0.627 µM (active); in test [18] it was 0.255 µM (active). For the same molecule, the GI50 in [19] is 2.17 µM (inactive); in test [20], 0.355 µM (active).
